Test results as given in patent US10688194B2, “Cell penetrating peptides for intracellular delivery of molecules” (AADIGEN, LLC, priority 2012, dated 2020).
Read-outs that look alike come from different tables or passages of the source. Ends that are not written are not given here. {Cy5} = cyanine 5 fluorescent label

Tests used:
MCF7 [1] = test: Inhibition of cancer cell proliferation by delivered small molecule drugs; assay type: cell-based; conditions: Homo sapiens
Description: (§6) Adherent HS68 fibroblasts, HeLa, PC3, MCF-7, SCK3-Her2, PBMC cell lines (from American Type Culture Collection (ATCC)) were cultured in Dulbecco's Modified Eagle's Medium supplemented with 2 mM glutamine, 1% antibiotics (streptomycin 10,000 μg/ml, penicillin, 10,000 IU/ml) and 10% (w/v) foetal calf serum (FCS), at 37° C. in a humidified atmosphere containing 5% CO2. […] 150,000 cells seeded in a 35 mm dish the day prior transfection, were grown to 60% confluence and overlaid with 200 μl of preformed complexes, incubated for 3-5 min, then 400 μl of DMEM were added. After 30 min. incubation at 37° C., 1 ml of fresh DMEM containing 16% foetal calf serum (FCS) was added in order to reach a final FCS concentration of 10%, without removing the overlay of VEPEP-3/peptide complexes. Cells were returned to the incubator for 24 hrs. […] Data reported are an average of 3 or 4 distinct experiments.

SKB3 = test: as above; assay type: cell-based
Description: as §6

HIV-1-LAI = assay type: cell-based; conditions: for anti viral activity: scrambled peptides; for IC50: -LAI; for fold higher antiviral activity than AZT: associated to the carrier peptide VEPEP-3
Description: (§1) Adherent HS68 fibroblasts, HeLa, PC3, MCF-7, SCK3-Her2, PBMC cell lines (from American Type Culture Collection (ATCC)) were cultured in Dulbecco's Modified Eagle's Medium supplemented with 2 mM glutamine, 1% antibiotics (streptomycin 10,000 μg/ml, penicillin, 10,000 IU/ml) and 10% (w/v) foetal calf serum (FCS), at 37° C. in a humidified atmosphere containing 5% CO2. Stock solutions of VEPEP-3/peptide particles were prepared by complexing 1 μM peptide with VEPEP-3 peptides at a molar ratio of 1/20 for 30 min at 37° C. Lower concentrations of VEPEP-3-carrier/peptide (from 500 nM to […]) were obtained by serial dilution of the stock complexes in PBS, in order to preserve the same VEPEP-3-carrier/peptide ratio. 150,000 cells seeded in a 35 mm dish the day prior transfection, were grown to 60% confluence and overlaid with 200 μl of preformed complexes, incubated for 3-5 min, then 400 μl of DMEM were added. After 30 min. incubation at 37° C., 1 ml of fresh DMEM containing 16% foetal calf serum (FCS) was added in order to reach a final FCS concentration of 10%, without removing the overlay of VEPEP-3/peptide complexes. Cells were returned to the incubator for 24 hrs. For cdk4 and CDK2 derived peptides cell proliferation was monitored after 24 and 48 hrs. For peptide-targeting integrase, HIV proliferation was analyzed on activated PBMC cells after 3 and 5 days. Data reported are an average of 3 or 4 distinct experiments.
The anti-HIV activities of the peptides (PC4D, PC6D & PC4S) and VEPEP-3/peptides were assayed according to previously described method (Roisin et al, 2004). Phytohemagglutinin-P (PHA-P)-activated peripheral blood mononuclear cells (PBMC) treated by increasing concentrations of peptide (from 100 to 0.1 nM), one hour later, were infected with hundred 50% tissue culture infectious doses (TCID50) per 100,000 cells of the HIV-1-LAI or different resistant strains (Barre-Sinoussi et al, 1983). Viruses were amplified in vitro on PHA-P-activated PBMC. Viral stock was titrated using PHA-P-activated PBMC, and 50% TCID50 were calculated using Karber's formula (Karber 1931). Samples were maintained throughout the culture, and cell supernatants were collected at day 7 post-infection and stored at −20 C. Viral replication was measured by quantifying RT activity in cell culture supernatants. In parallel, cytotoxicity of the compounds was evaluated in uninfected PHA-P-activated PBMC by colorimetric 3-(4-5 dimethylthiazol-2-yl)2,5 diphenyl tetrazolium bromite (MTT) assay on day 7 (Mossmann 1983). Experiments were performed in triplicate and repeated with another blood donor. Data analyses were performed using SoftMax® Pro 4.6 microcomputer software: percent of inhibition of RT activity or of cell viability were plotted vs. concentration and fitted with quadratic curves; 50% effective doses (ED50) and cytotoxic doses (CD50) were calculated.

MDA_MB cells = assay type: cell-based
[2] = tested on: Hela, MCF7, HEK-2, HS-68 and U2OS cells; test: Cell proliferation after VEPEP-3 mediated delivery of C2/C4, several lines; assay type: cell-based; conditions: delivered by VEPEP-3
Description: as §1, with “Data reported are an average of 3 or 4 distinct experiments.” left out

MCF7 [3] = assay type: cell-based
Description: as §1
(§2) A peptide C2 or C4 concentration of 200 nM was sufficient to block proliferation of Hela, MCF7, HEK-2, HS-68 and U2OS cells.

Hela [4] = assay type: cell-based
Description: as §1, §2

HEK-2 = assay type: cell-based
Description: as §1, §2

Hela [5] = assay type: cell-based; remark: listed apart in the source
Description: as §1, with “Data reported are an average of 3 or 4 distinct experiments.” left out

Cyclin B1 = test: VEPEP-3 mediated delivery of antisense PNA, Cyclin B1 protein level; assay type: cell-based; conditions: different cultured cells
Text: VEPEP-3 peptides have been used for the delivery of nucleic acid analogues (PNA and morpholino) into different cell lines, including primary cell lines and challenging cell lines. […] We have applied VEPEP-3 strategy for the delivery of PNA antisense targeting Cyclin B1 as previously described (Morris et al, 2007).

[6] = tested on: Hela, MCF7, HEK-2, HS-68, and U2OS cells; test: Cell cycle progression, controls; assay type: cell-based
Peptide (C4 and C2) = test: Fluorescence titration, VEPEP-3/cargo binding: peptide
Description: (§3) Fluorescence experiments were performed on a PTI spectrofluorimeter at 25° C. in a NaCl 154 mM buffer. Intrinsic Trp-fluorescence of VEPEP-3 was excited at 290 nm and emission spectrum was recorded between 310 and 400 nm, with a spectral band-pass of 2 and 8 nm for excitation and emission, respectively. FITC-fluorescence of labelled-peptide was excited at 492 nm and emission recorded between 500 and 580 nm. For VEPEP-3/peptide interaction, 0.5 μM of FITC-labelled peptide was titrated by increasing concentrations of VEPEP-3. All measurements were corrected for the dilution and curve fitting were performed by using Grafit software (Erithacus).
(§4) VEPEP-3 peptide form stable complexes with peptides and proteins. The binding of cargos to VEPEP-3 was monitored by fluorescence spectroscopy using the […] intrinsic Trp groups of VEPEP-3 (3 to 5 Trp-residues) and extrinsic fluorescently labelled cargoes (using Cy3, Cy5 or FITC). Curve fitting reveal that VEPEP-3 strongly binds the different cargoes with dissociation constant in the nanomolar range (examples with VEPEP-3a, VEPEP-3C, and VEPEP-3g and three different cargoes are reported in FIGS. 1A-1C, all the data are reported in Table 1).

[7] = Fluorescence titration, VEPEP-3/cargo binding: small hydrophobic molecule; conditions: cargo: Doxorubicine
Description: as §3
(§5) VEPEP-3 peptides also form stable particles with small aromatic molecules including Daunomycin, Paclitaxel, doxorubicin, porphyrin and charged molecules including nucleotide, nucleoside and peptide-analog of nucleic acids or fluorescent dyes (FIGS. 1A-1C). The dissociation constant for small hydrophobic molecule ranges between 0.05 to 2 μM, depending on the nature of the dyes and of the peptides.

PNA (15 mer-PNA) = test: Fluorescence titration, VEPEP-3/cargo binding: PNA; conditions: cargo: 15 mer-PNA
Description: as §3, §5

Cyclic peptide (PC4) = test: Fluorescence titration, VEPEP-3/cargo binding: cyclic peptide; conditions: cargo: Cyclic peptide (PC4)
Description: as §3, §4

protein (GFP & Nanobody) = test: Fluorescence titration, VEPEP-3/cargo binding: protein; conditions: cargo: protein (GFP & Nanobody)
Description: as §3, §4

[8] = drug complexed with VEPEP-3a 1/20, read-out: VEPEP-3a 1/20 IC50
[9] = drug complexed with VEPEP-3g 1/20, read-out: VEPEP-3g 1/20 IC50
[10] = SKB3, drug complexed with VEPEP-3a 1/20, read-out: VEPEP-3a 1/20 IC50
[11] = SKB3, drug complexed with VEPEP-3g 1/20, read-out: VEPEP-3g 1/20 IC50
[12] = SKB3, free drug, read-out: Free drug IC50

Molecule: COc1cccc2c1C(=O)c1c(O)c3c(c(O)c1C2=O)C[C@@](O)(C(=O)CO)C[C@@H]3O[C@H]1C[C@H](N)[C@H](O)[C@H](C)O1 [Doxo, doxorubicin]
- IC50 (MCF7 [1]; [8]): 200 nM
- IC50 (MCF7 [1]; drug complexed with VEPEP-3c 1/20, read-out: VEPEP-3c 1/20 IC50): 500 nM
- IC50 (MCF7 [1]; [9]): 200 nM
- IC50 (MCF7 [1]; free drug, read-out: Free drug IC50): 7000 nM
- IC50 (SKB3; [10]): 300 nM
- IC50 (SKB3; SKB3, drug complexed with VEPEP-3c 1/20, read-out: VEPEP-3c 1/20 IC50): 400 nM
- IC50 (SKB3; [11]): 200 nM
- IC50 (SKB3; [12]): 10000 nM
- fold more efficient when complexed with VEPEP-3 (SKB3; complexed versus free): 25 fold
- IC50 (SKB3; text of b118, cell line not stated, values match SKB3 line of Table 4, read-out: IC50, proliferation of cancer cells): 10000 nM

Molecule: CC(=O)O[C@H]1C(=O)[C@@]2(C)[C@H]([C@H](OC(=O)c3ccccc3)[C@]3(O)C[C@H](OC(=O)[C@H](O)[C@@H](NC(=O)c4ccccc4)c4ccccc4)C(C)=C1C3(C)C)[C@]1(OC(C)=O)CO[C@@H]1C[C@@H]2O [Taxol, taxol]
- IC50 (MCF7 [1]; [8]): 200 nM
- IC50 (MCF7 [1]; [9]): 700 nM
- IC50 (SKB3; [10]): 500 nM
- IC50 (SKB3; [11]): 800 nM
- IC50 (SKB3; [12]): 9000 nM

Molecule: KAETWAET (HELM PEPTIDE1{[ac].K.A.E.T.W.A.E.T.[SCCN[*:1]]}$$$$V2.0; SMILES CC(=O)N[C@@H](CCCCN)C(=O)N[C@@H](C)C(=O)N[C@@H](CCC(=O)O)C(=O)N[C@H](C(=O)N[C@@H](Cc1c[nH]c2ccccc12)C(=O)N[C@@H](C)C(=O)N[C@@H](CCC(=O)O)C(=O)N[C@H](C(=O)NCCS)[C@@H](C)O)[C@@H](C)O) [PC6S]
- anti viral activity (HIV-1-LAI): do not show any anti viral activity

Molecule: KKQVLAMEHLVT [C2, KKQVLAMEHLVT]
- IC50 (MDA_MB cells): 46 ± 14 nM
- peptide concentration sufficient to block proliferation [2]: 200 nM
- IC50 (MCF7 [3]): 67 ± 15 nM
- IC50 (Hela [4]): 37 ± 15 nM
- IC50 (HEK-2): 102 ± 24 nM
- IC50 (Hela [5]): 36 ± 21 nM

Molecule: KKQVRMAHLVLT [C4, KKQVRMAHLVLT]
- IC50 (MDA_MB cells): 46 ± 14 nM
- peptide concentration sufficient to block proliferation [2]: 200 nM
- IC50 (MCF7 [3]): 58 ± 6 nM
- IC50 (Hela [4]): 35 ± 12 nM
- IC50 (HEK-2): 78 ± 10 nM
- IC50 (Hela [5]): 36 ± 21 nM

Molecule: KWETWWET [PC6D, KWETWWET]
- IC50 (HIV-1-LAI): 0.09 ± 0.05 nM
- fold higher antiviral activity than AZT (HIV-1-LAI): 15 fold

Molecule: RWTEWEWW [PC4D, RWTEWEWW]
- IC50 (HIV-1-LAI): 0.12 ± 0.05 nM
- fold higher antiviral activity than AZT (HIV-1-LAI): 15 fold

Molecule: TGC CAT CGG GCT TGG AGG-CY5 (antisense TGCCATCGGGCTTGGAGG; 3' {Cy5}, sugars by position and backbone not given here; further chemistry not fully specified) [PNA (Cyclin B1)]
- downregulation of Cyclin B1 protein level (Cyclin B1): higher than 70%

Molecule: TWFTEWFT (HELM PEPTIDE1{[ac].T.W.F.T.E.W.F.T.[SCCN[*:1]]}$$$$V2.0; SMILES CC(=O)N[C@H](C(=O)N[C@@H](Cc1c[nH]c2ccccc12)C(=O)N[C@@H](Cc1ccccc1)C(=O)N[C@H](C(=O)N[C@@H](CCC(=O)O)C(=O)N[C@@H](Cc1c[nH]c2ccccc12)C(=O)N[C@@H](Cc1ccccc1)C(=O)N[C@H](C(=O)NCCS)[C@@H](C)O)[C@@H](C)O)[C@@H](C)O) [PC4S]
- anti viral activity (HIV-1-LAI): do not show any anti viral activity

Molecule: VTLMEAKKQVLT (HELM PEPTIDE1{[ac].V.T.L.M.E.A.K.K.Q.V.L.T.[SCCN[*:1]]}$$$$V2.0; SMILES CSCC[C@H](NC(=O)[C@H](CC(C)C)NC(=O)[C@@H](NC(=O)[C@@H](NC(C)=O)C(C)C)[C@@H](C)O)C(=O)N[C@@H](CCC(=O)O)C(=O)N[C@@H](C)C(=O)N[C@@H](CCCCN)C(=O)N[C@@H](CCCCN)C(=O)N[C@@H](CCC(N)=O)C(=O)N[C@H](C(=O)N[C@@H](CC(C)C)C(=O)N[C@H](C(=O)NCCS)[C@@H](C)O)C(C)C) [scrambled C2, reference compound]
- effect on cell cycle progression ([6]; 500 nM, complexed with VEPEP-3a at a 20/1 ratio): no effect

Molecule: X1KWFERWFREWPRKRR [VEPEP-3a]
- Binding, peptide (Peptide (C4 and C2)): yes
- Kd (Peptide (C4 and C2)): 10 to 20 nM
- effect on cell cycle progression ([6]; carrier alone (200 μM)): no effect
- Binding, SHM [7]: Yes
- Kd ([7]; read-out: Kd, SHM): 1000 nM
- Binding, PNA (PNA (15 mer-PNA)): Yes
- Kd (PNA (15 mer-PNA)): 100 nM
- Binding, Cyclic peptide (Cyclic peptide (PC4)): yes
- Binding, Protein (protein (GFP & Nanobody)): Yes
- Kd (protein (GFP & Nanobody)): 1000 nM
